Experimental data: US20050282870A1, “Peripherally-acting vasodilators” (priority 2004, published 2005)

Tested on: forearm and dorsum of the foot skin
Test: Skin vasodilatory response to topical application of 1% methyl nicotinate, Laser Doppler Perfusion Imaging
Type: in vivo, human
Settings: for maximal vasodilatory response: compared with acetylcholine and sodium nitroprusside
Procedure: Vasodilation induced by topical application of methyl nicotinate was evaluated and compared with the vasodilatory response to acetylcholine and sodium nitroprusside in healthy subjects and diabetic neuropathic patients. Ten diabetic patients with peripheral neuropathy and 10 age- and sex-matched healthy control subjects were enrolled. The vasodilatory response to topical application of 1% methyl nicotinate and a placebo emulsion at the forearm and dorsum of the foot skin at 4, 15, 30, 60 and 120 min was measured using Laser Doppler Perfusion Imaging. The vasodilatory response to iontophoresis of 1% acetylcholine and 1% sodium nitroprusside solutions was also evaluated.

With `COC(=O)c1cccnc1` [methyl nicotinate] the vasodilatory response (control group (healthy subjects), foot, topical 1%, compared to acetylcholine and sodium nitroprusside responses) was “higher”, the maximal vasodilatory response (control group (healthy subjects), forearm, topical 1%) was “similar” and the maximal vasodilatory response (diabetic patients with peripheral neuropathy, forearm and foot, topical 1%) was “similar”. The “time after application at which vasodilation was present” value (topical 1% methyl nicotinate) was 5 min, the “time of decline of vasodilation to pre-application levels” value (topical 1% methyl nicotinate) was 120 min and the “time of peak vasodilation” value (topical 1% methyl nicotinate) was 15 to 30 min.
